Source: ChEMBL document CHEMBL2021891, “STAT-3 inhibitory bisabolanes from Carthamus glaucus” (J Nat Prod, 2012)

Experiments:
[1] = target: Signal transducer and activator of transcription 3 (Homo sapiens, UniProt P40763); assay: Inhibition of IFNgamma-induced STAT3 activation in human HeLa cells expressing p4xM67-tk-Luc treated 30 mins before […] challenge measured after 6 hrs; type: cell-based
[2] = Inhibition of TNFalpha-induced NF-kappaB activation in human HIV-1-LTR-luc 5.1 cells treated 30 mins before TNFalpha challenge measured after 6 hrs

Sequence of Signal transducer and activator of transcription 3 (P40763 whole entry): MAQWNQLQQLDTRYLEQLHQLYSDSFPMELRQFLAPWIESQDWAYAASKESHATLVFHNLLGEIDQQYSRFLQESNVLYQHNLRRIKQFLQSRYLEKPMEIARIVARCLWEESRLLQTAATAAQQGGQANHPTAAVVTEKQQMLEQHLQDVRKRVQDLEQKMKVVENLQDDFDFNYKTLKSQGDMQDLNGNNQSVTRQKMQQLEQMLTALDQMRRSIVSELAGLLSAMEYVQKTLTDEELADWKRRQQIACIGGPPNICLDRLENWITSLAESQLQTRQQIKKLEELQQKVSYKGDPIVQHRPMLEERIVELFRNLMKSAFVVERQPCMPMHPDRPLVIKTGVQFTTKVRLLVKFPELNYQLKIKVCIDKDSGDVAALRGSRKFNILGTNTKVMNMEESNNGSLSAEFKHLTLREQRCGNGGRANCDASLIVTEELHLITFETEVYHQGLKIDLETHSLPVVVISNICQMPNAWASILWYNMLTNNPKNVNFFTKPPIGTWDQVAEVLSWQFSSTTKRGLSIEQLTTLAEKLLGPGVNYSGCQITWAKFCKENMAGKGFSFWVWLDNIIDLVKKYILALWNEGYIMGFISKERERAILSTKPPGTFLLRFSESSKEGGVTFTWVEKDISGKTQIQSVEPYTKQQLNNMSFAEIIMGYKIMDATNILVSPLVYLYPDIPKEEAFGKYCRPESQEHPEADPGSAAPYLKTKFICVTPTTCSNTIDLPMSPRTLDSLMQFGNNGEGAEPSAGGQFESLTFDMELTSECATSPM

`CC(C)=CCC[C@](C)(O[C@@H]1O[C@H](C)[C@H](O)[C@H](O)[C@H]1O)[C@@H]1CC=C(C)CC1` (relative stereo) showed an IC50 [1] of 6.3 µM and an IC50 [2] of 110 µM.

Molecule `CC(C)=CCC[C@](C)(O[C@@H]1O[C@H](C)[C@H](O)[C@H](OC(=O)C=C(C)C)[C@H]1O)[C@@H]1CC=C(C)CC1` (relative stereo) has an IC50 [1] of 110 µM and an IC50 [2] of 60 µM.

With `CC(C)=CCC[C@](C)(O)[C@@H]1CC=C(C)CC1` (relative stereo) [LEVOMENOL] the IC50 [1] was 73 µM and the IC50 [2] was over 220 µM.
